Reference: US20220175798A1, “COMPOSITIONS COMPRISING OXYGENATED CHOLESTEROL SULFATE AND AT LEAST ONE OF POLYALKYLENE GLYCOL, CARBOXYMETHYL CELLULOSE AND POLYOXYLGLYCERIDE” (Durect Corporation, priority 2016, published 2022)

Tests used:
[1] = Syringeability study of 25HC3S suspensions; type: physicochemical
Method: Two lots of 25HC3S sodium salt (Lot #A and Lot #B) were used. Lot #B was delumped through a 20 mesh screen. The drug substance was either used directly or further jet-milled, prior to the preparation of suspensions for the studies. A third lot of 25HC3 S sodium salt (Lot #C) was jet-milled first and then used directly or further passed through a 20 mesh screen prior to the studies. More than 10 vehicles were screened. Four mixing methods were evaluated: manual shaking (Mixing Method 1), manual shaking followed by sonication (Mixing Method 2) and homogenization with a sonic probe (Mixing Method 3) as well as mechanical shaking horizontally in a flat bed shaker (Mixing Method 4). Studies #1 to 13 combined vehicle screening, mixing methods and syringeability evaluation. The effect of drug concentrations on the syringeability was evaluated (Studies #10 and 11). Syringe: 1 mL BD syringe (luer lok tip), reference no: 309628 Needles for syringeability study: listed below Weigh approximately 10 to 100 mg each of 25HC3S into 2 mL vials. Add to each vial, 1 mL of vehicle. A total of 3 mixing methods were used to prepare the suspensions. Mixing Method 1: Each vial was manually shaken for 15 to 45 times. […] The effect of 25HC3S with or without jet milling and the effects of mixing methods as well as drug concentrations on the syringeability were evaluated. […]

[2] = Solubility of 25HC3S in aqueous solutions, organic solvents or oils; type: physicochemical; details: various aqueous solutions and FDA approved organic solvents or oils
Excerpt: The HPLC technique involved reverse phase HPLC for measuring the concentration of 25HC3 S in the solubility samples.

[3] = Single SC or IM injection PK study in rats; type: in vivo, Sprague Dawley rats
Method: The subjects for the study were 15 male Sprague Dawley rats (8-11 weeks of age; 280-327 g at time of dosing). […] All animals were in healthy condition and admitted to the study.
The Vehicle was a solution of 3% (w/v) polyethylene glycol 3350, 0.3% (v/v) polysorbate 80, 0.7% (w/v) sodium chloride, 0.15% (w/v) L-methionine, 10 mM sodium phosphate buffer at pH 7.4 in water. 25HC3S was mixed into the Vehicle solution to result in drug concentrations of 25, 5 and 10 mg/mL. […] The formulated test article was used within 24 hours of constitution.
Each rat received a single IM or SC injection (2 doses) (N=5/group). The dose level for the IM injection was 25 mg/kg was administered in a dose volume of 1 mL/kg. There were two dose groups for the SC injection route. The dose levels for the SC injections were 25 and 50 mg/kg with a dose volume of […] for both groups (drug concentrations were 5 and 10 mg/mL, respectively). Whole blood samples were collected via the jugular vein or the submandibular vein at pre-dose, 0.5, 1, 2, 4, 8, 12, 24, and 32 hours (h) post dose from each rat; however, the last blood collection may have been collected by terminal cardiac puncture with the animals deeply anesthetized by isoflurane. Blood samples were placed into tubes containing K2EDTA. The blood was gently mixed to assure distribution of the anti-coagulant and the resulting plasma samples underwent analyses to quantify 25HC3 S levels. […] Assessments included, but were not limited to, assessment of activity, posture, respiration, emesis, seizure, hydration status, injection site assessment and overall body condition.

## C[C@H](CCCC(C)(C)O)[C@H]1CC[C@H]2[C@@H]3CC=C4C[C@@H](OS(=O)(=O)[O-])CC[C@]4(C)[C@H]3CC[C@]12C.[Na+] [Formulation 25HC3S, 5-cholesten-3, 25-diol, 3-sulfate]
[1]; 25 mg/mL in Vehicle PEG 3350 (without L-Methionine), flat bed shaker 200 rpm up to 45 minutes (Study #13)
  syringeability: good syringeability
[1]; final suspension formulation: 25 mg/mL in 3% PEG 3350, 0.3% Tween 80, 0.75% NaCl, 10 mM phosphate buffer pH 7.4
  syringeability: good syringeability
[2]
  solubility: low solubility
[3]; IM 25 mg/kg
  mean maximum concentration: 101.9 (±17.1) ng/mL
  mean time to maximum plasma drug concentration: 10.4 (±2.2) hr
[3]; SC 25 mg/kg
  mean maximum concentration: 127.1 (±93.8) ng/mL
  mean time to maximum plasma drug concentration: 7.6 (±4.6) hrs
[3]; SC 50 mg/kg
  mean concentration at 32 h: 34.2 (±13.8) ng/mL
  mean maximum concentration: 76 (±15.9) ng/mL
  mean time to maximum plasma drug concentration: 7.2 (±1.8) hrs
[3]; single IM or SC injection
  clinical signs: no observable clinical signs
